Measured values published in patent US10144713B1, “Bis-cyclic guanidines as antibacterial agents” (UNIVERSITY OF SOUTH FLORIDA, priority 2017, dated 2018).
Like-named read-outs stand apart in the source and are kept apart here.

Experiments:
Type in all cases: cell-based
[1] = tested on: E. coli (ATCC 25922); assay: MIC against E. coli; conditions: Gram −, 16 h, 37° C.; for MIC: Escherichia coli, ATCC25922
Description: (§1) Minimum Inhibitory Concentrations (MICs) Against Bacteria.
(§2) The antimicrobial activity of the compounds was tested on the following six bacteria strains: K. pneumoniae (ATCC 13383), P. aeruginosa (ATCC27853), E. coli (ATCC 25922), vancomycin-resistant Enterococcus faecalis(ATCC 700802), Methicillin-resistant S. aureus (MRSA, ATCC 33591), Methicillin-resistant S. epidermidis (MRSE, RP62A). The procedures were followed as reported previously (Hancock et al., Immunobiology 2006, 211, 315-322). Briefly, a single colony of each bacterium was inoculated in 3 mL TSB medium and incubated overnight at 37° C. Then the bacteria culture was diluted at 1:100 and the bacteria were allowed to grow to mid-logarithmic phase. Next, 50 μL of 2-fold serial dilutions of compounds (0.1-25 μg/mL) were added the 96-well plate containing aliquots of 50 μL of bacteria suspension (1×10^6 CFU/mL) in each well. The mixture was incubated at 37° C. for 16 h, and their absorption at 600 nm wavelength was read on a Biotek Synergy HT microtiter plate reader. […] The experiments were repeated at least three times with duplicates each time. HC50 means the concentration causing 50% hemolysis.

[2] = tested on: Methicillin-resistant S. aureus (MRSA, ATCC 33591); assay: MIC against MRSA; conditions: Gram +, 16 h, 37° C.; for MIC: Staphylococcus aureus
Description: as §1, §2

[3] = tested on: six bacteria strains (K. pneumoniae, P. aeruginosa, E. coli, VRE, MRSA, MRSE); assay: Antimicrobial activity on the panel of six bacteria strains
Description: as §1, §2

[4] = tested on: vancomycin-resistant Enterococcus faecalis (ATCC 700802); assay: MIC against VRE; conditions: Gram +; 16 h, 37° C.
Description: as §1, §2

[5] = tested on: P. aeruginosa (ATCC27853); assay: MIC against P. aeruginosa; conditions: for MIC: Pseudomonas aeruginosa, ATCC27853
Description: as §1, §2

[6] = tested on: K. pneumoniae (ATCC 13383); assay: MIC against K. pneumoniae; conditions: Gram −, 16 h, 37° C.; for MIC: Klebsiella pneumoniae, ATCC13383
Description: as §1, §2

[7] = tested on: Methicillin-resistant S. epidermidis (MRSE, RP62A); assay: MIC against MRSE; conditions: Gram +, 16 h, 37° C.; for MIC: Staphylococcus epidermidis, MRSE
Description: as §1, §2

[8] = tested on: human red blood cells (hRBCs); assay: Hemolytic assay; conditions: for Hemolysis (HC50): concentration causing 50% hemolysis, hRBCs, 37° C., 1 h
Description: The freshly drawn, K2EDTA treated human red blood cells (hRBCs) were washed with 1×PBS buffer, and centrifuged at 3500 rpm for 10 min. The step was repeated until the supernatant became clear. The supernatant was removed, and the RBCs were diluted into 5% v/v suspension. 50 μL of the suspension was incubated with 50 μL of compounds of different concentrations at 37° C. for 1 h. The mixture was centrifuged at 3500 rpm for 10 min. Subsequently, to 30 μL of the supernatant 100 μL PBS was added, and the absorbance of the mixture at 540 nm was read on a Biotek Synergy HT plate reader. The positive control was 2% Triton X-100, and the negative control was 1×PBS alone. The hemolysis activity was calculated by the formula % hemolysis=(Abssample−AbsPBS)/(AbsTriton−AbsPBS)×100%. The experiment was repeated at least three times with duplicates each time.

[9] = read-out: MIC against Gram-positive bacteria
[10] = read-out: MIC for Gram-negative bacteria (except for P. aeruginosa)

| Compound | MIC [1] [µg/mL] | MIC [2] [µg/mL] | MIC [4] [µg/mL] | MIC ([5]; Gram −, 16 h, 37° C.) [µg/mL] | MIC [6] [µg/mL] | MIC [7] [µg/mL] | Hemolysis (HC50) [8] [µg/mL] | also measured |
| --- | --- | --- | --- | --- | --- | --- | --- | --- |
| N=C1N(CC(=O)Nc2cccc(NC(N)=O)c2)C[C@H](Cc2ccccc2)N1CCCc1ccccc1 [Compound 8] | > 25 | 12 to 25 |  |  |  |  |  | antibacterial activity against the tested bacteria (in words) [3]: negligible activity |
| CCN1C(=N)N(CC(=O)Nc2ccc(NC(=O)CN3C[C@H](Cc4ccccc4)N(CC)C3=N)cc2)C[C@@H]1Cc1ccccc1 [Compound 3] | 1.5 | 6 to 12 | > 25 | > 25 | > 25 | > 25 |  | MIC MRSA [2]: 6~12 μg/mL |
| CCCCCCN1C(=N)N(CC(=O)NCCCCNC(=O)CN2C[C@H](Cc3ccccc3)N(CCCCCC)C2=N)C[C@@H]1Cc1ccccc1 [Compound 13] | 1.5 | 0.75 | 3 to 6 | > 25 | 6 to 12 | 1.5 | >250 | activity against P. aeruginosa (in words) [5]: reduced activity |
| N=C1N[C@@H](Cc2ccccc2)CN1CC(=O)Nc1cccc(NC(=O)CN2C[C@H](Cc3ccccc3)NC2=N)c1 [Compound 2] | > 25 | > 25 |  |  |  |  |  |  |
| N#CNc1cccc(NC(=O)CN2C[C@H](Cc3ccccc3)N(CCCc3ccccc3)C2=N)c1 [Compound 7] | > 25 | 12 to 25 |  |  |  |  |  | antibacterial activity against the tested bacteria (in words) [3]: negligible activity |
| N=C1N(CC(=O)Nc2ccc(NC(=O)CN3C[C@H](Cc4ccccc4)N(CCCc4ccccc4)C3=N)cc2)C[C@H](Cc2ccccc2)N1CCCc1ccccc1 [Compound 5] | 1.5 to 3 | 0.33 | 0.75 | 12 to 25 | 1.5 to 3 | 0.75 | 140 | MIC [3, 9]: < 3 µg/mL; MIC [3, 10]: < 3 µg/mL |
| N=C1N(CC(=O)Nc2ccc(-c3ccc(NC(=O)CN4C[C@H](Cc5ccccc5)N(CCCc5ccccc5)C4=N)cc3)cc2)C[C@H](Cc2ccccc2)N1CCCc1ccccc1 [Compound 10] | > 25 | > 25 |  |  |  |  |  | antibacterial activity against the tested bacteria (in words) [3]: not active |
| N=C1N(CC(=O)NCCCCCCNC(=O)CN2C[C@H](Cc3ccccc3)N(CCCc3ccccc3)C2=N)C[C@H](Cc2ccccc2)N1CCCc1ccccc1 [Compound 9] | 3 to 6 | 0.75 | 1.5 to 3 | > 25 | 3 to 6 | 0.75 to 1.5 | 100 | HC50 ([8]; text b247, unit as printed): 100 µg/mL; activity against P. aeruginosa (in words) [5]: not active |
| CCCCCCN1C(=N)N(CC(=O)NCCCCCCCCNC(=O)CN2C[C@H](Cc3ccccc3)N(CCCCCC)C2=N)C[C@@H]1Cc1ccccc1 [Compound 15] | 0.75 to 1.5 | 0.75 | 0.325 | > 25 | 1.5 to 3 | 1.5 | >250 | activity against P. aeruginosa (in words) [5]: reduced activity |
| N=C1N[C@@H](Cc2ccccc2)CN1CC(=O)NCCCCNC(=O)CN1C[C@H](Cc2ccccc2)NC1=N [Compound 1] | > 25 | > 25 |  |  |  |  |  |  |
| Colistin [reference compound] |  |  |  |  |  |  |  | MIC VRE [4]: >50 µg/mL; MIC P. aeruginosa ([5]; Gram −, 16 h, 37° C.): 1.0 µg/mL; MIC E. coli [1]: 0.5 µg/mL; MIC K. pneumoniae [6]: 0.5 µg/mL; MIC MRSE [7]: >50 µg/mL; MIC MRSA [2]: >50 µg/mL |
| N=C1N(CC(=O)Nc2cccc(NC(=O)CN3C[C@H](Cc4ccccc4)N(CCCc4ccccc4)C3=N)c2)C[C@H](Cc2ccccc2)N1CCCc1ccccc1 [Compound 6] | 3 to 6 | 1.5 to 3 | 1.5 | 12 to 25 | 3 | 1.5 | >250 | MIC [3, 9]: < 3 µg/mL; MIC [3, 10]: < 3 µg/mL |
| CCCCCCN1C(=N)N(CC(=O)NCCCCCCNC(=O)CN2C[C@H](Cc3ccccc3)N(CCCCCC)C2=N)C[C@@H]1Cc1ccccc1 [Compound 14] | 1.5 | 0.325 | 1.5 | > 25 | 3 to 6 | 0.75 | >250 | activity against P. aeruginosa (in words) [5]: reduced activity |
| CCN1C(=N)N(CC(=O)Nc2cccc(NC(=O)CN3C[C@H](Cc4ccccc4)N(CC)C3=N)c2)C[C@@H]1Cc1ccccc1 [Compound 4] | 3 | 6 to 12 | > 25 | > 25 | > 25 | > 25 |  | MIC E. coli [1]: 3.0 µg/mL; MIC MRSA [2]: 6~12 μg/mL |

The next lines start with results.

| MIC [1] [µg/mL] | MIC [2] [µg/mL] | MIC [4] [µg/mL] | MIC ([5]; Gram −, 16 h, 37° C.) [µg/mL] | MIC [6] [µg/mL] | MIC [7] [µg/mL] | Compound | Hemolysis (HC50) [8] [µg/mL] | also measured |
| --- | --- | --- | --- | --- | --- | --- | --- | --- |
| 12 | 0.75 | 0.75 | > 25 | 1.5 to 3 | 0.33 | N=C1N(CC(=O)Nc2ccc(NC(=O)CN3C[C@H](Cc4ccccc4)N(CCCC4CCCCC4)C3=N)cc2)C[C@H](Cc2ccccc2)N1CCCC1CCCCC1 [Compound 19] | 5 |  |
| > 25 | 1.5 |  |  |  |  | CCCCCCCCN1C(=N)N(CC(=O)Nc2ccc(NC(=O)CN3C[C@H](Cc4ccccc4)N(CCCCCCCC)C3=N)cc2)C[C@@H]1Cc1ccccc1 [Compound 17] |  | antibacterial activity against the tested bacteria (in words) [3]: decreased activity |
| > 50 | 0.5 | 1 | > 50 | > 50 | 0.5 | CCCCCCCCCC(=O)N[C@@H](Cc1c[nH]c2ccccc12)C(=O)N[C@H](CC(N)=O)C(=O)N[C@@H](CC(=O)O)C(=O)N[C@@H]1C(=O)NCC(=O)N[C@@H](CCCN)C(=O)N[C@@H](CC(=O)O)C(=O)N[C@H](C)C(=O)N[C@@H](CC(=O)O)C(=O)NCC(=O)N[C@H](CO)C(=O)N[C@@H]([C@H](C)CC(=O)O)C(=O)N[C@@H](CC(=O)c2ccccc2N)C(=O)O[C@@H]1C [Daptomycin, reference compound] |  |  |
| > 25 | 6 |  |  |  |  | N=C1N(CC(=O)Nc2ccc(NC(=O)CN3C[C@H](Cc4ccccc4)N(CCC45CC6CC(CC(C6)C4)C5)C3=N)cc2)C[C@H](Cc2ccccc2)N1CCC12CC3CC(CC(C3)C1)C2 [Compound 21] |  |  |
| 1.5 to 3 | 1.5 | 0.75 | 6 to 12 | 0.75 | 1.5 | CCCCCCN1C(=N)N(CC(=O)Nc2cccc(NC(=O)CN3C[C@H](CC(C)C)N(CCCCCC)C3=N)c2)C[C@@H]1CC(C)C [Compound 23] | 200 |  |
| 12 | 0.325 | 1.5 | > 25 | 1.5 to 3 | 0.33 | N=C1N(CC(=O)Nc2cccc(NC(=O)CN3C[C@H](Cc4ccccc4)N(CCCC4CCCCC4)C3=N)c2)C[C@H](Cc2ccccc2)N1CCCC1CCCCC1 [Compound 20] | 26 |  |
| > 25 | 1.5 |  |  |  |  | CCCCCCCCN1C(=N)N(CC(=O)Nc2cccc(NC(=O)CN3C[C@H](Cc4ccccc4)N(CCCCCCCC)C3=N)c2)C[C@@H]1Cc1ccccc1 [Compound 18] |  | antibacterial activity against the tested bacteria (in words) [3]: decreased activity |
| > 25 | 3 |  |  |  |  | N=C1N(CC(=O)Nc2cccc(NC(=O)CN3C[C@H](Cc4ccccc4)N(CCC45CC6CC(CC(C6)C4)C5)C3=N)c2)C[C@H](Cc2ccccc2)N1CCC12CC3CC(CC(C3)C1)C2 [Compound 22] |  |  |
